Data reported in patent US8865659B2, “Compositions for prevention or treatment of Hepatitis C virus containing ginsenoside Rg3 as an active ingredient” (priority 2012, dated 2014).

Columns and labels:
[1] = tested on: Huh 7.5.1 cells infected with JFH-1 virus; test: Microscopic identification of virus suppression effect (cell shape, phase contrast microscope); assay type: cell-based; details: 100 μM; for shapes of Huh 7.5.1 cells: JFH-1 infected
Method: About 200,000 Huh 7.5.1 cells were added to a 60×15 mm cell culture dish and every 100 μM of seven ginsenosides (Ro, Re, Rg1, Rg2, Rg3, Rh1, Rh2) per 60×15 mm cell culture dish each was treated. Since it was necessary for ginsenosides in powder formulation to make solutions for the experiments, 50 mM basic concentration solutions for the seven ginsenosides each were prepared and the basic solutions were refrigerated at 4° C. until they were needed.
Non-treatment group (Control), Non-treatment group and DMSO 10 μl treatment group (Control+DMSO 10 μl), JFH-1 virus treatment group (Only JFH-1), JFH-1 virus and DMSO 10 μl treatments group (JFH-1+DMSO 10 μl), JFH-1 virus and Ro 100 uM treatments group (JFH-1+Ro 100 uM), JFH-1 virus and Re 100 uM treatments group (JFH-1+Re 100 uM), JFH-1 virus and Rg1 100 uM treatments group (JFH-1+Rg1 100 uM), JFH-1 virus and Rg2 100 uM treatments group (JFH-1+Rg2 100 uM), JFH-1 virus and Rg3 100 uM treatments group (JFH-1+Rg3 100 uM), JFH-1 virus and Rh1 100 uM treatments group (JFH-1+Rh1 100 uM), JFH-1 virus and Rh2 100 uM treatments group (JFH-1+Rh2 100 uM), JFH-1 virus and Rg1 100 uM treatments group (JFH-1+Rg1 100 uM).
(§1) The experiment was carried out as follow. First, 200,000 Huh 7.5.1 cells were placed in a 60×15 mm cell culture dish. Next day, Japanese Fulminant Hepatitis-1 virus (JFH-1) stock vial which was stored in −70° C. refrigerator was taken out and thawed out in a container filled with ice-water. The culture medium was collected from the cultured 60×15 mm cell culture dish, washed with 1×PBS and collected, again. 1.5 ml of JFH-1 virus solution per 60×15 mm cell culture dish each was added. The dish was shaken to cover the surface sufficiently. The dish was laid in a 5% CO2 incubator at 37° C. for 6 hours and after that, the supernatant was draw out. 1×PBS was spread on the cell surface as slow as possible and after one time washing, cells were collected. 5 ml of cell culture media was added to control and JFH-1 treatments groups. At the last step of virus-infection, 5 ml CM and each […] of ginsenosides which was set to 50 mM concentration were added to the cell culture media. After that, the cell culture media was laid in a 5% CO2 incubator at 37° C. After 72 hours, the following steps were carried out.
As described in the above Example 3, each 100 μM of seven ginsenosides (Ro, Re, Rg1, Rg2, Rg3, Rh1, Rh2) was treated to Huh 7.5.1 cells. After 24 hours and 72 hours, the shapes of Huh 7.5.1 cells were observed using a phase contrast microscope (ECLIPSE TE300, Nicon) of 400× magnifications.

[2] = tested on: JFH-1 virus infected Huh 7.5.1 cell; test: MTT assay, cytotoxicity of ginsenosides on liver cancer cell line; assay type: cell-based; details: 100 μM, 72 hours
Method: MTT assay was conducted to identify cytotoxicity of ginsenosides.
Specifically, the cells (Huh7.5.1) were seeded at the rate of 1×10^4 cells (in 100 μL)/well in 96 well plates, and incubated in 5% CO2 incubator for less than 24 hours. And after the samples were washed with 1×PBS once and treated with the rate of 50 ul JFH-1 virus/well, and replaced in the 5%, CO2 incubator for six hours. After taking out the cell samples from the incubator, the samples were washed with 1×PBS once and replaced in the culturing media comprising 10, 25, 50 and 100 μL concentration of the above stated seven (7) ginsenosides in Example 3, respectively. After the cells were incubated in 5% CO2 incubator for 72 hours, 20 μl of assay reagent, EZ Cytox, was seeded into each well with the care of no bubble producing. And then, the treated cells were incubated in 5% CO2 incubator for 2.5 hours, followed by examining absorbance at 420 nm with Microplate Reader (Molecular Devices, Minn.). DMSO was the solvent used when treating with ginsenoside, and both the control group and the cells infected with JFH-1 group were also treated with the solvent DMSO.

HCV CORE = test: Western blotting against HCV CORE in JFH-1 infected Huh 7.5.1 cells; assay type: cell-based, Hepatitis C virus (JFH-1); details: 10 μM, 25 μM and 50 μM
Method: as §1
As described in the above Example 3, the Huh 7.5.1 cells were treated with each 100 μM of seven ginsenosides (Ro, Re, Rg1, Rg2, Rg3, Rh1, Rh2). After 72 hours, a western blotting analysis was carried out for analyzing virus suppression effect against HCV CORE and cleaved PARP.
Specific western blotting analysis carried out was as follow. First, the above described samples were prepared, mixed with a sample buffer in tubes and heated at 100° C. for 10 minutes. The tubes were cooled on ice and centrifuged. The electrophoresis was carried out with the above samples and molecular weight markers, and then they were transferred to a PVDF membrane (hydrophobic). After blocking with 5% skin milk for an hour, each primary antibody was added. After staying overnight at 4° C., washings three times for every 10 minutes were conducted, and the blocking was carried out with 5% skin milk for an hour at the room temperature. After that, each secondary antibody was added, and the reaction for an hour and washing three times for every 10 minutes were conducted. Then, the membrane was stained by 1:1 mix with detection reagents A (Luminol Enhancer solution) and B (Peroxide solution) and developed with X ray film.
To examine the dose-dependent anti-virus effect of ginsenoside Rg3, western blotting analysis against cleaved PARP and HCV CORE were carried out with the samples of ginsenosides Rg3 treatment concentration at 10 μM, 25 μM, 50 μM and 100 μM each.
To examine the dose-dependent anti-virus effect of ginsenoside Rh2, western blotting analysis against cleaved PARP and HCV CORE were carried out with the samples of ginsenosides Rh2 treatment concentration at 10 μM, 25 μM and 50 μM each. […]

CC(C)=CCC[C@](C)(O)[C@H]1CC[C@]2(C)[C@@H]1[C@H](O)C[C@@H]1[C@@]3(C)CC[C@H](O[C@@H]4O[C@H](CO)[C@@H](O)[C@H](O)[C@H]4O)C(C)(C)[C@@H]3CC[C@]12C [ginsenoside Rh2, reference compound]
cell survival under treatment [1]: all cells became extinct | shapes of Huh 7.5.1 cells ([1]; 24 hours after treatment): No cell were remained due to the apoptosis of all cells | shapes of Huh 7.5.1 cells ([1]; 72 hours after treatment): No cell were remained due to the apoptosis of all cells | cytotoxicity (MTT assay) [2]: cytotoxic effect was shown predominantly | virus suppression effect (HCV CORE), dose dependence (HCV CORE): dose-dependent manner
